Columns and labels:
[1] = test system: polychromatic erythrocytes in bone marrow of male and female ICR mice; conditions: definitive study, male and female mice, 24 or 48 h after dose; CP 50 mg/kg; Kastenbaum-Bowman Tables
Experimental: (§1) The assay was performed in two phases. The first phase, pilot toxicity study, was designed to assess toxicity of the test article and set dose levels for the definitive study. The second phase, the definitive micronucleus study, was designed to evaluate the potential of the test article to increase the incidence of micronucleated polychromatic erythrocytes in bone marrow of male and female ICR mice.
(§2) Phosphate buffered saline (PBS) was used as the test article vehicle. The test article was a workable suspension in PBS at 100 mg/mL, the maximum concentration prepared and tested in this study. […] In both phases of the study, test or control articles were administered at a dose volume of 20 mL/kg body weight via a single oral gavage dose.
(§3) The definitive micronucleus study consisted of seven groups, each containing 5 male and female ICR mice. […] An additional group of 5 male and 5 female ICR mice were treated with 2000 mg/kg to be used as possible replacement animals for the high dose in the event of mortality. […] Bone marrow cells [polychromatic erythrocytes (2000 PCEs/animal)] collected 24 and 48 hours after treatment were examined microscopically for the presence of micronuclei.

[2] = Solubility and precipitation in water / on plates (mutation assay); type: physicochemical; conditions: initial toxicity-mutation assay with lactose, up to 31765 μg per plate
Experimental: (§4) The dose levels tested were 1.5, 5.0, 15, 50, 150, 500, 1500 and 5000 μg per plate.
(§5) The dose levels tested were 50, 150, 500, 1500 and 5000 μg per plate.

[3] = test system: male and female ICR mice; conditions: mouse, in vivo
Experimental: as §1, §2, §3

[4] = test system: Salmonella typhimurium tester strains TA98, TA100, TA1535 and TA1537 and Escherichia coli tester strain WP2 uvrA; experiment: Bacterial Reverse Mutation Assay (plate incorporation method); conditions: initial toxicity-mutation assay with lactose, maximum dose 31765 μg per plate
Experimental: as §4
Based on the findings of the initial toxicity-mutation assay, the maximum dose plated in the confirmatory mutagenicity assay was 5000 μg per plate.
as §5

[5] = test system: Chinese hamster ovary (CHO) cells; experiment: Chromosome aberration assay in CHO cells; type: cell-based; conditions: preliminary toxicity assay, any dose level up to 5000 μg/mL, all three exposure groups
Experimental: A preliminary toxicity test was performed to establish the dose range for the chromosome aberration assay. The chromosome aberration assay was used to evaluate the clastogenic potential of the test article. The dosing solution concentrations were adjusted to compensate for the protein content (13.6%) of the test article using a correction factor of 7.35.
In order to evaluate the toxic effect of lactose alone on the test system, α-Lactose monohydrate was tested as reference article at the same percentage of lactose as in the highest test article dose formulation in the preliminary toxicity assay. McCoy's media (complete medium for the non-activated test system and serum-free medium for the S9-activated test system) were the solvents of choice based on the solubility of the test article and compatibility with the target cells. […] The reference article was soluble in McCoy's complete and serum-free media at the dose level tested in the preliminary toxicity assay.
In the preliminary toxicity assay, the maximum dose tested was 5000 μg/mL. […] The reference article was soluble in complete medium and serum-free medium at 31.76 mg/mL at the beginning and conclusion of the treatment period. […]

Row | SMILES | incidence of micronucleated polychromatic erythrocytes relative to vehicle control [1] | precipitate [2] | mortality and clinical signs [3] | toxicity [4] | substantial toxicity (at least 50% cell growth inhibition relative to solvent control) [5]
1 | O=P1(N(CCCl)CCCl)NCCCO1 (centres unmarked) [CP, cyclophosphamide monohydrate] | significant increase | – | – | – | –
2 | O.OC[C@H]1O[C@@H](O[C@H]2[C@H](O)[C@@H](O)[C@@H](O)O[C@@H]2CO)[C@H](O)[C@@H](O)[C@H]1O [α-Lactose monohydrate] | – | Neither precipitate | no clinical signs | Neither precipitate nor appreciable toxicity | not observed

— patent US20110098216A1 (REGEN THERAPEUTICS PLC, priority 2009, published 2011)
